Measured values reported in patent US11040021B2, “Treatment of diseases associated with hepatic stellate cell activation using ammonia-lowering therapies” (UCL Business PLC, priority 2014, dated 2021).

Legend:
[1] = test system: primary human hepatic stellate cells (hHSCs); experiment: hHSC recovery with glutamine and GS inhibition (MSO) under ammonia; assay type: cell-based
Method: (§1) Primary human hepatic stellate cells (hHSCs) were cultured. Effects of an NH4Cl challenge (0.1-10 mM over 24-72 hrs) on hHSC proliferation (BrdU), metabolic activity (MTS assay), viability (Neutral-Red), ultrastructural changes (TE-M) and gene/protein expression (q-PCR/Western blot) were studied. To test recovery, ammonia treated cells were replenished with glutamine and in separate experiments, pre-treated with L-methionine-sulfoximine (MSO-GS inhibitor) to determine the importance of glutamine synthetase (GS).

SOD2 = SOD2 mRNA expression in hHSC; assay type: cell-based, human
[2] = test system: primary human hepatic stellate cells (hHSCs)
Method: as §1
(§2) In this example, primary human HSCs (hHSCs) were isolated and cultured. Proliferation (BrdU), metabolic activity (MTS), morphology (TEM, light- and immunofluorescence microscopy), HSC activation markers, ability to contract, and changes in oxidative status (ROS) were evaluated to identify effects of ammonia challenge (50 μM, 100 μM, 300 μM) over 24-72 hours.
(§3) Primary hHSCs were isolated from wedge sections of liver tissue, obtained from patients undergoing surgery in the Royal Free Hospital after giving informed consent (EC01.14-RF). Cells were isolated according to Mederacke et al. (Nature Protocols 2015, 10:305-315) with modifications for human liver as described in Rombouts K, Carloni V. Determination and characterization of tetraspanin-associated phosphoinositide-4 kinases in primary and neoplastic liver cells. In: Waugh MG, editor. Lipid Signaling Protocols, 2 ed. New York: Springer Science+Business Media; 2015. p. 203-212). Briefly, 10 g of total human liver tissue was digested with 0.01% Collagenase, 0.05% Pronase and 0.001% DNase I without performing perfusion. The homogenate was filtered through a 100 μm cell strainer and the flow-through was centrifuged at 50×g for 2 minutes at 4° C. After washing the supernatant, gradient centrifugation was performed at 1400×g for 17 minutes at 4° C. using an 11.5% Optiprep gradient. Finally, the interface was collected and washed. Purity of hHSCS was established by detection of CD140b (PDGFRbeta), CD29 (Integrin beta 1) and Cytoglobin (CYGB).
The obtained HSCs were cultured in RPMI supplemented with 20% fetal bovine serum (FBS), GLUTAMAX, nonessential amino acids 1×, 1.0 mM sodium pyruvate, 1× antibiotic-antimycotic (all Life Technologies), referred to as complete HSC medium hereinafter. Experiments described in this study were performed on hHSCs of at least three independent cell preparations between passage 3 and 8.
Cells were seeded (density 26×10^3/cm^2) under basic serum-rich conditions (CM complete medium) for 24 hours, followed by serum deprivation for another 24 hours (SFM). Exogenous glutamine was removed from the culture medium to avoid uncontrolled generation of ammonia. Specific treatment with NH4Cl treatments were replaced daily for the duration of the experiment.

[3] = test system: primary human hepatic stellate cells (hHSCs); remark: listed apart in the source
Text: as §3
The obtained HSCs were cultured in RPMI supplemented with 20% fetal bovine serum (FBS), GLUTAMAX, nonessential amino acids 1×, 1.0 mM sodium pyruvate, 1× antibiotic-antimycotic (all Life Technologies), referred to as complete HSC medium hereinafter. […]

[4] = test system: primary human hepatic stellate cells (hHSCs); details: after 3 hours, sustained after 24 hours, vs control
Method: as §2

[5] = test system: primary human hepatic stellate cells (hHSCs); details: up to 72 hours
Method: The formation of reactive oxygen species (ROS) was measured using Image-IT™ LIVE Green Reactive Oxygen Species Detection Kit. In FIG. 3B, mean fluorescence intensity (MFI) of ROS signal was normalized according to the number of cells (Hoechst 33342), and expressed as percentage of control.
as §2

[6] = test system: MMP2, TIMP1, Interleukin-1β, Interleukin 6, Interleukin 8
Method: as §1, §2

[7] = test system: α-SMA, vimentin, PDGF-Rβ, Myosin IIa and IIb, p-38 MAPK, Collagen type I
Method: as §1, §2

[8] = Example 1, NH4Cl challenge 0.1-10 mM over 24-72 hrs
[9] = different concentrations of ammonia (50, 100, 300 μM), 72 hours
[10] = in comparison to MSO treatment only
[11] = increasing concentrations of ammonia

**Q.** With NC(=O)CC[C@H](N)C(=O)O [L-glutamine] as the compound, how does the “Ammonia-induced ER enlargement on replenishing the culture with L-glutamine” value ([1]; Example 1) read?
**A.** reversible

**Q.** Which “Effect of MSO together with hyperammonemia on hHSC” value ([1]; Example 1, MSO pre-treatment) does the source give for CS(=N)(=O)CC[C@H](N)C(=O)O (stereo partly drawn) [MSO, L-Methionine sulfoximine] here?
**A.** induced cell detachment and prevention of recovery

**Q.** For CC(=O)N[C@@H](CS)C(=O)O [NAC, N-acetyl cysteine], which “Ammonia-induced SOD2 mRNA expression after NAC pre-treatment” value (SOD2; 3 hours of ammonia treatment) is on record?
**A.** no impact

**Q.** What about the “Ammonia-induced SOD2 mRNA expression after NAC pre-treatment” value (SOD2; 24 hours of ammonia treatment) of the same compound?
**A.** almost completely abolished

**Q.** For N [ammonia, NH4Cl], which “Filamentous actin in the cytoskeleton (TRITC-Phalloidin staining)” value ([2]; 72 hours) is on record?
**A.** dose-dependent disruption of filamentous actin

**Q.** And the “Intracellular ER (ultrastructure)” value ([2]; Example 1)?
**A.** dose-dependent intracellular ER enlargement

**Q.** And the Metabolic activity [2, 8]?
**A.** time dependent decreases

**Q.** What about the Proliferation [2, 8] of the same compound?
**A.** time dependent decreases

**Q.** What about the Cell phenotype ([2]; Example 1, even at 50-100 umol/L) of the same compound?
**A.** cell swelling and a myo-fibroblast-like phenotype

**Q.** What about the “Cell proliferation (BrdU assay)” value [2, 9] of the same compound?
**A.** significant inhibition

**Q.** What about the “Metabolic activity (MTS assay)” value [2, 9] of the same compound?
**A.** significant inhibition

**Q.** What about the “Ultrastructural change (TEM)” value ([2]; dose-dependent, FIG. 2A) of the same compound?
**A.** dramatic dose-dependent change in the cytosol and marked presence of translucent vacuoles

**Q.** What about the “Metabolic activity after MSO pretreatment followed by ammonia” value [2, 10] of the same compound?
**A.** did not further inhibit

**Q.** What about the “Proliferation after MSO pretreatment followed by ammonia” value [2, 10] of the same compound?
**A.** did not further inhibit

**Q.** And the “Cell death (Cell Death Detection ELISA)” value [3]?
**A.** did not cause cell death

**Q.** What about the “Contraction of hHSCs cultured on collagen gels” value [4] of the same compound?
**A.** significant ability to contract

**Q.** And the ROS production [5]?
**A.** produced significant reactive oxygen species

**Q.** And the “SOD2 mRNA expression” value (SOD2; ammonia, after 3 hours, sustained at 24 hours)?
**A.** strong increase

**Q.** And the “Interleukin 8 mRNA expression” value [6]?
**A.** did not modify

**Q.** What about the “MMP2 mRNA expression” value ([6]; FIG. 4B) of the same compound?
**A.** strong and significant up-regulation

**Q.** What about the “TIMP1 mRNA expression” value ([6]; FIG. 4B) of the same compound?
**A.** down-regulated

**Q.** What about the “Interleukin-1β mRNA expression” value ([6]; ammonia 300 μM for 72 hours) of the same compound?
**A.** significantly induced

**Q.** And the “Interleukin 6 mRNA expression level” value ([6]; ammonia at 50 μM and 100 μM)?
**A.** significantly up-regulated

**Q.** And the “P-38 MAPK expression” value [7]?
**A.** dose-dependent response

**Q.** What about the PDGFR-β protein [7] of the same compound?
**A.** significant up-regulation

**Q.** What about the Vimentin synthesis ([7]; 300 μM ammonia) of the same compound?
**A.** increased

**Q.** What about the α-SMA protein expression ([7]; FIG. 4A) of the same compound?
**A.** significantly increase

**Q.** What about the “Myosin IIa protein” value [7, 11] of the same compound?
**A.** significantly modulated

**Q.** And the “Myosin IIb protein” value [7, 11]?
**A.** significantly modulated

**Q.** And the “Collagen type I protein” value ([7]; not statistically significant)?
**A.** tendency to increase
